Here are results for 20 compounds from ChEMBL document CHEMBL5380861, “Design and Synthesis of Orexin 1 Receptor-Selective Agonists” (J Med Chem, 2023).

Data set [1] has as its target T1, Orexin receptor type 2 (Homo sapiens, UniProt O43614).
T1 sequence (O43614 whole entry): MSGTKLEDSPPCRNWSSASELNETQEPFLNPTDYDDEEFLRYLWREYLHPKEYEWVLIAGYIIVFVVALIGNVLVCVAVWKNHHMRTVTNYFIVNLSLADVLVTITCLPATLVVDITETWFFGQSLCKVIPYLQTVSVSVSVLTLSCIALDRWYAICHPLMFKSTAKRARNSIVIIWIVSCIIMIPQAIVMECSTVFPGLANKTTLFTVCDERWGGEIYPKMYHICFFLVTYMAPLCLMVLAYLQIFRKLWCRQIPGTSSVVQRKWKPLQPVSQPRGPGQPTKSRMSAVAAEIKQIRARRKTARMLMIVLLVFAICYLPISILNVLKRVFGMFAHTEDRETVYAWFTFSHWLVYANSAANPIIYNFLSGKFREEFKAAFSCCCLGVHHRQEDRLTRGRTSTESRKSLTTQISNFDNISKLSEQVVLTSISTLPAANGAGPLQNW
Description: Agonist activity at human OX2R expressed in CHO-K1 cells assessed as increase in intracellular calcium

In data set [2] the target is T2, Orexin/Hypocretin receptor type 1 (Homo sapiens, UniProt O43613).
T2 sequence (O43613 whole entry): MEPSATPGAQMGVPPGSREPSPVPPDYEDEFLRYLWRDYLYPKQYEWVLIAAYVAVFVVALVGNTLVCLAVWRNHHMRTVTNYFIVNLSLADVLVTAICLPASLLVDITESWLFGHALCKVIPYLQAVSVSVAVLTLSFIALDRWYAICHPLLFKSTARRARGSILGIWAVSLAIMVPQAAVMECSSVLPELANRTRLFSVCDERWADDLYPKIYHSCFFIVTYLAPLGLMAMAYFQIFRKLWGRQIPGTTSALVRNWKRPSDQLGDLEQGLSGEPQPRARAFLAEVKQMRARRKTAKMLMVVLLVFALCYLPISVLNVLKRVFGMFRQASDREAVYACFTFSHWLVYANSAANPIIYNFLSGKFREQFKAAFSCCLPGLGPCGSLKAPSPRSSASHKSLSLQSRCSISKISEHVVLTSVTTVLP
Description: Agonist activity at human OX1R expressed in CHO-K1 cells assessed as increase in intracellular calcium

Data set [3] has as its target T2, Orexin/Hypocretin receptor type 1. The data set can be described thus: Agonist activity at OX1R (unknown origin).
Data set [4] in a line: Drug concentration in mouse plasma at 40 mg/kg, sc. In kind it is ADME, organism-based. The settings on record: in vivo.
Data set [5] is described as follows: Drug concentration in mouse brain at 40 mg/kg, sc. It counts as ADME, organism-based. The settings on record: in vivo.
A short description of data set [6]: Ratio of drug concentration in mouse brain to plasma at 40 mg/kg, sc.
Data set [7] has as its target T3, Orexin/Hypocretin receptor type 1 (Mus musculus, UniProt P58307).
T3 sequence (P58307 whole entry): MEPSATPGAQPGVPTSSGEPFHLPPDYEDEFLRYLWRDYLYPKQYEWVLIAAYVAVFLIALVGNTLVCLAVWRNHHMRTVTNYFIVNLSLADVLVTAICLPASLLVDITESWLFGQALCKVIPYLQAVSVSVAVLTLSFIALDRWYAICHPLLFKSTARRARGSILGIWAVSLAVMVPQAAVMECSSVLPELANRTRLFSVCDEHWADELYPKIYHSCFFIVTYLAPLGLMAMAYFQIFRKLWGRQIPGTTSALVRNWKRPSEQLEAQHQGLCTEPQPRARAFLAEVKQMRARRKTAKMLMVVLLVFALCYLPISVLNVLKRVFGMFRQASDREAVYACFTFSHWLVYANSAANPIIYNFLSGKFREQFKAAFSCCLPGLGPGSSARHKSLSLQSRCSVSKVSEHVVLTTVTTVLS
The data set can be described thus: Agonist activity at mouse OX1R expressed in HEK293 cells by AP-TGFalpha reporter assay.

Data set [8] deals with T4, Orexin receptor type 2 (Mus musculus, UniProt P58308).
T4 sequence (P58308 whole entry): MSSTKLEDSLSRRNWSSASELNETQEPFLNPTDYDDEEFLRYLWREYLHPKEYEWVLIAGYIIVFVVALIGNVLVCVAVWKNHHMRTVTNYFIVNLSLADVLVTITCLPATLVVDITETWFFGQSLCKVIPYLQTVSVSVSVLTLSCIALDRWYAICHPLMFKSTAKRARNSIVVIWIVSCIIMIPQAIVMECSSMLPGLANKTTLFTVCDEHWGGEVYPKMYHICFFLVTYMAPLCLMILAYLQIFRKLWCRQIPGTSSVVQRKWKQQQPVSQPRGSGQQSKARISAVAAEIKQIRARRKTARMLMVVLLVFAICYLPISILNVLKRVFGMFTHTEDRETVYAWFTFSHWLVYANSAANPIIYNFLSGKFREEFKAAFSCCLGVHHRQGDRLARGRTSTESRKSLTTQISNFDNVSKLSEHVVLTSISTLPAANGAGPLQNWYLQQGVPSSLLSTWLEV
The data set can be described thus: Agonist activity at mouse OX2R expressed in HEK293 cells by AP-TGFalpha reporter assay. A general note: Reporter assays use an easily measured gene product as a stand-in for the process of interest.

As a reminder, the EC50 is the concentration that produces a half-maximal response. Read a low EC50 as greater potency. As for `COc1cccc(CC(=O)N(C)C2CCCc3ccc(NS(=O)(=O)c4cc(/C=C/C(=O)N(C)C)ccc4OC)cc32)c1` (centres undefined), the EC50 in data set [1] was greater than 10 µM; in data set [2], 1.28 µM.
`COc1cccc(CC(=O)N(C)[C@H]2CCCc3ccc(NS(=O)(=O)c4cc(/C=C/C(=O)Nc5ccncc5)ccc4OC)cc32)c1` had an EC50 in data set [2] of 3.59 µM.
`COc1cccc(CC(=O)N(C)C2CCCc3ccc(NS(=O)(=O)c4cc(/C=C/C(=O)Nc5ccccn5)ccc4OC)cc32)c1` (centres undefined): the concentration for a half-maximal effect (EC50) in data set [1] was determined as 0.955 µM; in data set [2], 0.201 µM.
Regarding `COc1cccc(CC(=O)N(C)C2CCCc3ccc(NS(=O)(=O)c4cc(CC(=O)N(C)C)ccc4OC)cc32)c1` (centres undefined), the midpoint of the response in data set [2], the EC50, lay at 1.04 µM.
As for `COc1cccc(CC(=O)N(C)C2CCCc3ccc(NS(=O)(=O)c4cc(C(=O)N(C)C)ccc4OC)cc32)c1` (centres undefined), the values for the EC50 in data set [1] and in data set [2] were 0.146 µM and 0.607 µM, respectively.
Consider `COc1cccc(CC(=O)N(C)C2CCCc3ccc(NS(=O)(=O)c4cc(CCC(=O)N(C)C)ccc4OC)cc32)c1` (centres undefined), for which, in data set [2], the 50% effective concentration (EC50) was 1.76 µM.
For the compound `COc1ccc(-c2cccc(C(=O)N(C)C)c2)cc1S(=O)(=O)Nc1cccc(CCNC(=O)c2ccccc2-n2nccn2)c1`, in data set [3], a half-maximal response (EC50) required 36 µM.
In data set [2], `COc1cccc(CC(=O)N(C)C2CCCc3ccc(NS(=O)(=O)c4cc(/C=C/C(N)=O)ccc4OC)cc32)c1` (centres undefined) had an EC50 of 0.581 µM.
For `COCCNC(=O)/C=C/c1ccc(OC)c(S(=O)(=O)Nc2ccc3c(c2)C(N(C)C(=O)Cc2cccc(OC)c2)CCC3)c1` (centres undefined), the results for the EC50 in data set [1] and in data set [2] were greater than 10 µM and 0.476 µM, respectively.
Consider `COc1cccc(CC(=O)N(C)C2CCCc3ccc(NS(=O)(=O)c4cc(/C=C/C(=O)Nc5cccnc5)ccc4OC)cc32)c1` (centres undefined), for which the EC50 stood at 0.295 µM in data set [1] and 0.0434 µM in data set [2].
Taken in the same sequence, the figures for `CCCCNC(=O)/C=C/c1ccc(OC)c(S(=O)(=O)Nc2ccc3c(c2)C(N(C)C(=O)Cc2cccc(OC)c2)CCC3)c1` (centres undefined) were greater than 10 µM and 0.573 µM.
One may read the Kp as tissue or fluid exposure divided by exposure in the circulation. As for `COc1cccc(CC(=O)N(C)[C@@H]2CCCc3ccc(NS(=O)(=O)c4cc(-c5cccc(C(=O)N(C)C)c5)ccc4OC)cc32)c1`, the concentration in data set [4] turned out to be 25 µM. Besides, the Ct in data set [5] came to 61.1 pmol/g. Besides, the Kp in data set [6] was 0.002. In addition, the figures for the EC50 in data set [7] and in data set [8] were 0.174 µM and 0.069 µM, respectively.
As to `COc1cccc(CC(=O)N(C)C2CCCc3ccc(NS(=O)(=O)c4cc(/C=C/C(=O)NCCN(C)C)ccc4OC)cc32)c1` (centres undefined), the half-maximal effective concentration (EC50) came to 2.41 µM in data set [1] and 0.271 µM in data set [2].
For `COc1cccc(CC(=O)N(C)C2CCCc3ccc(NS(=O)(=O)c4cc(CCCC(=O)N(C)C)ccc4OC)cc32)c1` (centres undefined), in data set [1], the midpoint of the response, the EC50, lay at 1.02 µM.
`COc1cccc(CC(=O)N(C)[C@@H]2CCCc3ccc(NS(=O)(=O)c4cc(/C=C/C(=O)Nc5ccncc5)ccc4OC)cc32)c1` came in with a concentration in data set [4] of 32 µM. For the same compound, the Ct in data set [5] worked out at 137 pmol/g. In addition, the results for the EC50 in data set [7], in data set [8] and in data set [2] were 0.154 µM, 0.457 µM and 0.747 µM, respectively.
As for `COc1cccc(CC(=O)N(C)C2CCCc3ccc(NS(=O)(=O)c4cc(-c5ccccc5)ccc4OC)cc32)c1` (centres undefined), the EC50 is 1.29 µM in data set [1] and 5.92 µM in data set [2].
For `COc1cccc(CC(=O)N(C)C2CCCc3ccc(NS(=O)(=O)c4cc(/C=C/C(=O)N(C)c5ccncc5)ccc4OC)cc32)c1` (centres undefined) the same measures were 0.275 µM and 0.187 µM.
Taken in the same sequence, the figures for `COc1cccc(CC(=O)N(C)C2CCCc3ccc(NS(=O)(=O)c4cc(/C=C/C(=O)Nc5ccccc5)ccc4OC)cc32)c1` (centres undefined) were 3.29 µM and 0.472 µM.
`COc1cccc(CC(=O)N(C)C2CCCc3ccc(NS(=O)(=O)c4cc(/C=C/C(=O)Nc5ccncc5)ccc4OC)cc32)c1` (racemic) yielded a concentration for a half-maximal effect (EC50) in data set [2] of 0.0153 µM.
In the case of `CNC(=O)/C=C/c1ccc(OC)c(S(=O)(=O)Nc2ccc3c(c2)C(N(C)C(=O)Cc2cccc(OC)c2)CCC3)c1` (centres undefined), the EC50 in data set [1] was greater than 10 µM; in data set [2], 0.501 µM.
